Test results from article PMC8930067 (Cardiovascular Research, 2021).
Counter-ions that a name gives are not always drawn.

Target: SERCA2a (Rattus norvegicus, UniProt P11507)
Assay: […]-ATP hydrolysis
Assay type: cell-based
Conditions: read-out: % Vmax at 500 nmol/L

Sequence of SERCA2a (P11507 1-997 isoform P11507-2): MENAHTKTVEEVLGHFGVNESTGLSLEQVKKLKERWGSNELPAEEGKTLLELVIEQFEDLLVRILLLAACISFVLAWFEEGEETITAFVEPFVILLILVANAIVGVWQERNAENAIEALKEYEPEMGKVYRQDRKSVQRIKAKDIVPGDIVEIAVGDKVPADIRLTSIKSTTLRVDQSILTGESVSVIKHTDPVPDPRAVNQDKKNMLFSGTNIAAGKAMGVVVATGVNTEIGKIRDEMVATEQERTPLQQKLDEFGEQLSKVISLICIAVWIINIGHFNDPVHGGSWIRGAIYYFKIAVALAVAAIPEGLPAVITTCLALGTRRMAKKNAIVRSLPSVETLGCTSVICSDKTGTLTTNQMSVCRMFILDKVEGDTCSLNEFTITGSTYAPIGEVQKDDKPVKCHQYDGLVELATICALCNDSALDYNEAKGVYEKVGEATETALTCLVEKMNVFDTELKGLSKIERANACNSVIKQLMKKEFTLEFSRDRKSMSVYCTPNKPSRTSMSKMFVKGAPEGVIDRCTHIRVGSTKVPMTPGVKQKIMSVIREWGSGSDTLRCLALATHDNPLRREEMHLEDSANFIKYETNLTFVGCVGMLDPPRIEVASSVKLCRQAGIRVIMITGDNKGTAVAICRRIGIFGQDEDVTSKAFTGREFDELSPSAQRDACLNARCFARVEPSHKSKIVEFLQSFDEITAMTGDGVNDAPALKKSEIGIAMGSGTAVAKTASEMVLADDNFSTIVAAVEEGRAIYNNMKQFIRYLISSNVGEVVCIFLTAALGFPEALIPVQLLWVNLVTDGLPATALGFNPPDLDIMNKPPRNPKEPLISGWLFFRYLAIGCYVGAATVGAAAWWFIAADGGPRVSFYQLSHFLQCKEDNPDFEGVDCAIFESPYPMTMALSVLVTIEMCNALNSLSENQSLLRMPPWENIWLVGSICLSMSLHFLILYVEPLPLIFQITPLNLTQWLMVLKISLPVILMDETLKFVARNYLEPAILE

Compound C[C@]12CCC(=NOCCN)C[C@@H]1C(=O)C[C@@H]1[C@@H]2CC[C@]2(C)C(=O)CC[C@@H]12 [istaroxime, (E,Z)-3-((2-aminoethoxy)imino)androstane-6,17-dione hydrochloride] has an activation at 0.5 µM of 25%.
